# Where “and” joins values, the source holds several entries; their conditions need not be identical. Equal entries are not always repeated.
# Experiments:
# Assay type in all cases: cell-based
# BTK^FL [1] = target: T1, BTK^FL (Homo sapiens, UniProt Q06187+Q13490); assay: Expi293 dose-dependent BTK degradation (western blot), BTK^FL co-transfected with cIAP1^FL; settings: for DC50: Expi293, cIAP1^FL co-transfected, ~18 h, 3 experiments, read-out: DC50 for degradation of BTK^FL (WT)
# T1 construct: we used a full-length BTK (aa1-659) with a C terminal Tobacco Etch Virus protease (TEV) site; expressed in transfected cells; host or cells: Expi293 (HEK293)
# Description: (§1) Gibco Expi293 cell line Transfection Kit (Cat.# A14524) was cultured according to the manufacturers conditions. Cells were grown at 37 °C with 5% CO2 to 4 × 10^6 cells/mL using an orbital shaker set to 95 RPM. Next cells were split to 2 × 10^6 cells/mL and transfected with plasmid DNA at a 1 µg/mL final concentration in Optimem (Gibco 31985070) using the Expifectamine 293 transfection reagent according to manufacturer’s conditions. After approximately 18 h, enhancers 1 and 2 (provided with kit). Viability was typically about 85%. When cIAP1^FL was transfected, it was detected via α-cIAP1 antibody there was typically some autoubiquitination detected, and thus often appeared as a laddered or smeared band via western blotting. When BTK^FL variants were transfected, they were detected using anti-BTK antibody (D3H5).
# For dose-dependent degradation assays, cells were plated in a 24-well format and placed on a separate orbital shaker set to 115 RPM. Each well was treated with prescribed compound concentrations in the same manner as with THP-1 cells, with the exception of using Expifectamine 293 growth medium in place of RPMI 1640 complete media. After approximately 18 h post-treatment cells were harvested, centrifuged at 100 x g at 4 °C, washed twice with ice-cold PBS, and resuspended in RIPA buffer supplemented with a Roche protease inhibitor cocktail (Cat. #11873580001), and benzonase nuclease (Millipore-Sigma Cat# 70664). Each sample was incubated on ice for 30 min with periodic vortexing and centrifuged at 15 Kxg for 20 min. Clarified lysate was harvested and quantified using a Pierce BCA Assay Kit (Cat. #23225), and 20 µg of the sample was loaded into a 4–15% Criterion TGX gel (Bio-Rad, 5678085) and transferred to a nitrocellulose membrane (Life Technologies Cat. #IB23001) using an iBlot 2 (Life Technologies Cat. #IB21001). Proteins were detected using an iBind system (Life Technologies SLF2020). For BTK^T474I and BTK^T474I/C481S we inferred ligand entry into cells via the autoubiquitination and dose-dependent degradation of cIAP1^FL,[58].
# Dose-dependent Degradation was analyzed using ImageJ (NIH, version 1.50i). Densiometric analysis was performed, normalized to DMSO signal, and analyzed using GraphPad Prism (Version 9.0.0 (121)). Non-linear fit one-phase decay analysis was used to obtain DC50 values. When we observed a hook effect, some points were excluded as part of the fit. In Supplementary Fig. 7B the complete curve was fit using GraphPad Prism non-linear regression bell-shaped curve where X is the concentration. However, using this method we were unable to obtain stable values for our DC50. SEM error was plotted for each point. When determining statistically significant differences, we used a two-sided student’s unpaired T-Test.
# BTK^FL [2] = target: T1, BTK^FL; assay: Expi293 time-dependent degradation of BTK^FL; settings: 5 µM; for BTK^FL (WT) blot signal normalized to time 0: replicates
# Description: as §1
# (§2) For covalent modification detection assays, the compound was added to Expi293 cells after enhancer treatment. At each timepoint 10 mL of cells were harvested, rapidly cooled to 4 °C in an ice bath, and centrifuged at 100 x g at 4 °C for 5 min. The pellet was washed twice with ice-cold PBS, snap-frozen in liquid nitrogen, and stored at −80 °C. Each pellet was resuspended in 0.1 mL ice-cold RIPA Buffer supplemented with 40 µM BCNC (to outcompete any remaining BCCov), protease inhibitor, and benzonase, and sonicated with 10 brief blasts at power 20. Lysate was centrifuged at 15 K x g for 20 min at 4 °C and prepared for western blotting as detailed above. When samples were evaluated for covalent adduct formation, a purification step was required. Briefly, the ~1 mL of clarified lysate was added to 9 mL of FLAG binding buffer (25 mM HEPES 7.5, 300 mM NaCl, 10% glycerol). These samples were incubated with 250 µL of anti-FLAG M2 affinity resin (Millipore-Sigma Cat. # A2220) for 3 h at 4 °C with gentle nutation. Samples were washed via gravity column filtration and eluted with 0.2 mg/ml FLAG Peptide (DYKDDDDK, CPC Scientific Peptide Company). Each sample was concentrated to 0.1 mg/mL using an Amicon Ultra-15 Centrifugal filter with a 50 kDa MWCO (Millipore-Sigma Cat. # UFC905024). Details on mass spectrometry analysis are below.
# BTK^FL-C481S = target: T2, BTK^FL-C481S (Homo sapiens, UniProt Q06187+Q13490, C481S); assay: Expi293 time-dependent degradation of BTK^FL-C481S; settings: 5 µM; for BTK^FL-C481S blot signal normalized to time 0: replicates
# T2 construct: we used a full-length BTK (aa1-659) with a C terminal Tobacco Etch Virus protease (TEV) site; expressed in transfected cells; host or cells: Expi293 (HEK293)
# Description: as §1, §2
# T2 sequence (Q06187 whole entry C481S, the tested form may be a part): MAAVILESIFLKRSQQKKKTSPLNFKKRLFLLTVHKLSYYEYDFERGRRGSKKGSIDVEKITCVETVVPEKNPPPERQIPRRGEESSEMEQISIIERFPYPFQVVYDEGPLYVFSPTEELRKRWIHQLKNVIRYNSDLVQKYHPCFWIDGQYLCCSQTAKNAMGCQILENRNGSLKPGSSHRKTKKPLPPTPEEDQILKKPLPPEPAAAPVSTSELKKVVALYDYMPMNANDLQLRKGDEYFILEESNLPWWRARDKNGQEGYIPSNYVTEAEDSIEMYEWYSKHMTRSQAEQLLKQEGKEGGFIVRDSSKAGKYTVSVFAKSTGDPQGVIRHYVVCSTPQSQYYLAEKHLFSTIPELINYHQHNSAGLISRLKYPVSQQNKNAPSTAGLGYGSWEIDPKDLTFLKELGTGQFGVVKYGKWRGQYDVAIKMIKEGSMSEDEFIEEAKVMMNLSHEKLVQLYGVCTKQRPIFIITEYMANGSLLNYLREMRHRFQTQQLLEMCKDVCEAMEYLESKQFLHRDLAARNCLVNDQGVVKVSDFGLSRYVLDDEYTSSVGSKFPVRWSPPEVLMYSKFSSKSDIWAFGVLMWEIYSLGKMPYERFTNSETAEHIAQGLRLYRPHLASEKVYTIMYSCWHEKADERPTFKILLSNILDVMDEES
# T2 sequence (Q13490 whole entry, the tested form may be a part): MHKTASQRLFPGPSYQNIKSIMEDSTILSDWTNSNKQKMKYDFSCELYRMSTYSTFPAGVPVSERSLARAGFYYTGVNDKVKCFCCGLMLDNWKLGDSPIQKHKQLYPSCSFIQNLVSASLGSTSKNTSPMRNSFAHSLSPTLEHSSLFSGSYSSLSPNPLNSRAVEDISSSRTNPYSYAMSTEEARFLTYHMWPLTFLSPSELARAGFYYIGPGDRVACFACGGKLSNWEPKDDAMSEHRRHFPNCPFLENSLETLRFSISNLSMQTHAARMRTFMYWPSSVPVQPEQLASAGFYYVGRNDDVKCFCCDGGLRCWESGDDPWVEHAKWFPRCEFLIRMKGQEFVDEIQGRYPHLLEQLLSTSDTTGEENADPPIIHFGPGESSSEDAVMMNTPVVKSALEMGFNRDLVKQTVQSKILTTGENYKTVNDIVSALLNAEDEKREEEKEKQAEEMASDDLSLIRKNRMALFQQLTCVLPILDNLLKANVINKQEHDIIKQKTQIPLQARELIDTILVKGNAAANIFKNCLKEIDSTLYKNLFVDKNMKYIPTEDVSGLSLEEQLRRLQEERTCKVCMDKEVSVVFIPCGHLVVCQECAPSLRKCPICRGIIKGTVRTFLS
# T1 sequence (Q06187 whole entry, the tested form may be a part): as the sequence (Q06187 whole entry C481S, the tested form may be a part) above, with S481C counted along it
# T1 sequence (Q13490 whole entry, the tested form may be a part): as the sequence (Q13490 whole entry, the tested form may be a part) above
smiles,measurement,setting,value
CNC(C)C(=O)NC(C(=O)N1CC(NC(=O)COCCN2CCN(CC=CC(=O)N3CCCC(n4nc(-c5ccc(Oc6ccccc6)cc5)c5c(N)ncnc54)C3)CC2)CC1C(=O)NC1CCCc2ccccc21)C1CCCCC1 (stereo not shown) [BCCov],WT BTK blot signal normalized to DMSO,"BTK^FL [1]; 0.004883 uM, replicates",0.92 and 0.99 and 1.00
same,WT BTK blot signal normalized to DMSO,"BTK^FL [1]; 0.009766 uM, replicates",0.74 and 1.02 and 0.84
same,WT BTK blot signal normalized to DMSO,"BTK^FL [1]; 0.019531 uM, replicates",0.72 and 0.83 and 0.75
same,WT BTK blot signal normalized to DMSO,"BTK^FL [1]; 0.039063 uM, replicates",0.52 and 0.87 and 0.78
same,WT BTK blot signal normalized to DMSO,"BTK^FL [1]; 0.078125 uM, replicates",0.38 and 0.65 and 0.51
same,WT BTK blot signal normalized to DMSO,"BTK^FL [1]; 0.15625 uM, replicates",0.29 and 0.54 and 0.30
same,WT BTK blot signal normalized to DMSO,"BTK^FL [1]; 0.3125 uM, replicates",0.25 and 0.36 and 0.30
same,WT BTK blot signal normalized to DMSO,"BTK^FL [1]; 0.625 uM, replicates",0.21 and 0.32 and 0.16
same,WT BTK blot signal normalized to DMSO,"BTK^FL [1]; 1.25 uM, replicates",0.20 and 0.35 and 0.15
same,WT BTK blot signal normalized to DMSO,"BTK^FL [1]; 2.5 uM, replicates",0.24 and 0.40 and 0.29
same,"BTK level normalized to untreated BTK^FL, Figure 1B Lane 2","BTK^FL [1]; 5 µM, BTK^FL without cIAP1^FL, replicates",1.30 and 0.97 and 0.91
same,WT BTK blot signal normalized to DMSO,"BTK^FL [1]; 5 uM, replicates",0.68 and 0.77 and 0.51
same,BTK degradation without cIAP1^FL,"BTK^FL [1]; BTK^FL transfected without cIAP1^FL (Fig. 1B, lane 2)",no observable ligand-induced BTK degradation
same,DC50,BTK^FL [1],57.2 ± 28 nM
same,hook effect in degradation profile,"BTK^FL [1]; wt BTK^FL, Expi293",partial hook effect
same,BTK^FL (WT) blot signal normalized to time 0,BTK^FL [2]; 0.5 h,0.46 and 0.65 and 0.56
same,BTK^FL (WT) blot signal normalized to time 0,BTK^FL [2]; 1 h,0.26 and 0.42 and 0.40
same,BTK^FL (WT) blot signal normalized to time 0,BTK^FL [2]; 2 h,0.14 and 0.25 and 0.20
same,BTK^FL (WT) blot signal normalized to time 0,BTK^FL [2]; 3.5 h,0.0842 and 0.15 and 0.20
same,BTK^FL (WT) blot signal normalized to time 0,BTK^FL [2]; 5.5 h,0.12 and 0.14 and 0.13
same,BTK^FL (WT) blot signal normalized to time 0,BTK^FL [2]; 7 h,0.07 and 0.02 and 0.03
same,BTK^FL (WT) blot signal normalized to time 0,BTK^FL [2]; 17 h,0.00 (2×) and 0.02
same,time at which degradation reaches a plateau,BTK^FL [2]; BTK^FL with cIAP1^FL,≤ 7 h
same,time at which degradation starts,BTK^FL [2]; BTK^FL with cIAP1^FL,30 min
same,rate of BTK^FL-C481S degradation compared with BTK^FL,BTK^FL-C481S,slower rate
same,BTK^FL-C481S blot signal normalized to time 0,BTK^FL-C481S; 0.5 h,0.75 and 0.78 and 0.82
same,BTK^FL-C481S blot signal normalized to time 0,BTK^FL-C481S; 1 h,0.77 and 0.74 and 0.81
same,BTK^FL-C481S blot signal normalized to time 0,BTK^FL-C481S; 2 h,0.71 and 0.76 and 0.72
same,BTK^FL-C481S blot signal normalized to time 0,BTK^FL-C481S; 3.5 h,0.60 and 0.65 and 0.66
same,BTK^FL-C481S blot signal normalized to time 0,BTK^FL-C481S; 5.5 h,0.58 and 0.55 and 0.61
same,BTK^FL-C481S blot signal normalized to time 0,BTK^FL-C481S; 7 h,0.41 and 0.48 and 0.42
same,BTK^FL-C481S blot signal normalized to time 0,BTK^FL-C481S; 17 h,0.07 (2×) and 0.02
CNC(C)C(=O)NC(C(=O)N1CC(NC(=O)COCCN2CCN(CCCC(=O)N3CCCC(n4nc(-c5ccc(Oc6ccccc6)cc5)c5c(N)ncnc54)C3)CC2)CC1C(=O)NC1CCCc2ccccc21)C1CCCCC1 (stereo not shown) [BCNC],WT BTK blot signal normalized to DMSO,"BTK^FL [1]; 0.004883 uM, replicates",0.92 and 1.00 (2×)
same,WT BTK blot signal normalized to DMSO,"BTK^FL [1]; 0.009766 uM, replicates",0.74 and 1.02 and 0.84
same,WT BTK blot signal normalized to DMSO,"BTK^FL [1]; 0.019531 uM, replicates",0.72 and 0.83 and 0.75
same,WT BTK blot signal normalized to DMSO,"BTK^FL [1]; 0.039063 uM, replicates",0.52 and 0.87 and 0.78
same,WT BTK blot signal normalized to DMSO,"BTK^FL [1]; 0.078125 uM, replicates",0.38 and 0.65 and 0.51
same,WT BTK blot signal normalized to DMSO,"BTK^FL [1]; 0.15625 uM, replicates",0.29 and 0.54 and 0.30
same,WT BTK blot signal normalized to DMSO,"BTK^FL [1]; 0.3125 uM, replicates",0.25 and 0.36 and 0.30
same,WT BTK blot signal normalized to DMSO,"BTK^FL [1]; 0.625 uM, replicates",0.21 and 0.32 and 0.16
same,WT BTK blot signal normalized to DMSO,"BTK^FL [1]; 1.25 uM, replicates",0.2 and 0.35 and 0.15
same,WT BTK blot signal normalized to DMSO,"BTK^FL [1]; 2.5 uM, replicates",0.24 and 0.40 and 0.29
same,WT BTK blot signal normalized to DMSO,"BTK^FL [1]; 5 uM, replicates",0.68 and 0.77 and 0.51
same,DC50,BTK^FL [1],149 ± 70 nM
same,BTK^FL (WT) blot signal normalized to time 0,BTK^FL [2]; 0.5 h,0.49 and 0.76 and 0.55
same,BTK^FL (WT) blot signal normalized to time 0,BTK^FL [2]; 1 h,0.28 and 0.42 and 0.35
same,BTK^FL (WT) blot signal normalized to time 0,BTK^FL [2]; 2 h,0.16 and 0.20 and 0.21
same,BTK^FL (WT) blot signal normalized to time 0,BTK^FL [2]; 3.5 h,0.06 (2×) and 0.10
same,BTK^FL (WT) blot signal normalized to time 0,BTK^FL [2]; 5.5 h,0.056 and 0.10 and 0.08
same,BTK^FL (WT) blot signal normalized to time 0,BTK^FL [2]; 7 h,0.00935 and 0.01 and 0.09
same,BTK^FL (WT) blot signal normalized to time 0,BTK^FL [2]; 17 h,0.00 and 0.02 (2×)
same,BTK^FL-C481S blot signal normalized to time 0,BTK^FL-C481S; 0.5 h,0.79 and 0.85 and 0.76
same,BTK^FL-C481S blot signal normalized to time 0,BTK^FL-C481S; 1 h,0.74 and 0.81 and 0.78
same,BTK^FL-C481S blot signal normalized to time 0,BTK^FL-C481S; 2 h,0.68 and 0.72 and 0.69
same,BTK^FL-C481S blot signal normalized to time 0,BTK^FL-C481S; 3.5 h,0.53 and 0.64 and 0.52
same,BTK^FL-C481S blot signal normalized to time 0,BTK^FL-C481S; 5.5 h,0.35 and 0.44 and 0.38
same,BTK^FL-C481S blot signal normalized to time 0,BTK^FL-C481S; 7 h,0.35 and 0.32 and 0.33
same,BTK^FL-C481S blot signal normalized to time 0,BTK^FL-C481S; 17 h,0.00 and 0.04 (2×)

# From PMC9981747, “A covalent BTK ternary complex compatible with targeted protein degradation” (Nature Communications, 2023)
